From patent publication US8017612B2, “Piperazine compound and use thereof as a HCV polymerase inhibitor” (priority 2006, dated 2011)

Legend:
[1] = biological target: T1, HCV polymerase (NS5B) type 1b (Hepatitis C virus genotype 1b, UniProt P26663); assay: Assay of enzyme (HCV polymerase) inhibitory activity, type 1b enzyme; assay type: biochemical, HCV BK strain (type 1b); details: HCV polymerase inhibitory activity (IC50), 1b, type 1b enzyme 0.5 μg/ml, 25° C., 60 min
T1 construct: a region encoding NS5B (J Virol 1991 March, 65(3), 1105-13, 544 amino acids after deletion of 47 amino acids on the C-terminal); 6xHis (C); made in house; host or cells: Escherichia coli
How it was run: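 Rxn: NS5B 1b (BK, ΔC47, His6) 0.5 μg/ml; substrate RNA 5 μg/ml; ATP/GTP/CTP 50 μM, UTP 2 μM + [5,6-3H]UTP; 20 mM Tris pH 7.5, 5 mM MgCl2, 50 mM NaCl, 1 mM EDTA/DTT. 25 °C, 60 min. Stop with TCA/pyrophosphate, filter, scintillation count; IC50 vs. untreated.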

[2] = biological target: T2, HCV polymerase (NS5B) type 1a (Hepatitis C virus genotype 1a, UniProt P26664); assay: Assay of enzyme (HCV polymerase) inhibitory activity, type 1a enzyme; assay type: biochemical, HCV type 1a (cloned from the blood of patients); details: HCV polymerase inhibitory activity (IC50), 1a, type 1a enzyme 1.5 μg/ml, 25° C., 60 min
T2 construct: made in house; host or cells: Escherichia coli (by the 'similar method' of the 1b enzyme)
How it was run: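 NS5B Δ47 C-term His6 (type 1a, 1.5 μg/ml); substrate RNA 5 μg/ml; ATP/GTP/CTP 50 μM, UTP 2 μM + [5,6-3H]UTP; Tris pH 7.5, MgCl2 5 mM; 25° C, 60 min. TCA/pyrophosphate stop, GF/B filter, scintillation. IC50 vs no-compound control.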

SMILES	IC50 [1] [nM]	IC50 [2] [nM]
CC(=O)N1CCN(S(=O)(=O)c2ccc(C(C)C)cc2)C(C(=O)NCc2ccc(C(C)C)cc2)C1 (centres unmarked) [Example 117, 4-acetyl-1-(4-isopropyl-benzenesulfonyl)-piperazine-2-carboxylic acid 4-isopropyl-benzylamide]	100 to 1000	100 to 1000
CC(=O)N1CCN(S(=O)(=O)c2ccc(C(C)C)cc2)C(C(=O)NCCc2ccccc2)C1 (centres unmarked) [Example 118, 4-acetyl-1-(4-isopropyl-benzenesulfonyl)-piperazine-2-carboxylic acid phenethyl-amide]	> 1000	> 1000
CC(=O)N1CCN(S(=O)(=O)c2ccc(C(C)C)cc2)C(C(=O)NCc2cccc(C(F)(F)F)c2)C1 (centres unmarked) [Example 119, 4-acetyl-1-(4-isopropyl-benzenesulfonyl)-piperazine-2-carboxylic acid 3-trifluoromethyl-benzylamide]	> 1000	> 1000
CC(=O)N1CCN(S(=O)(=O)c2ccc(C(C)C)cc2)C(C(=O)NCc2ccccc2C(F)(F)F)C1 (centres unmarked) [Example 120, 4-acetyl-1-(4-isopropyl-benzenesulfonyl)-piperazine-2-carboxylic acid 2-trifluoromethyl-benzylamide]	> 1000	> 1000
CC(=O)N1CCN(S(=O)(=O)c2ccc(C(C)C)cc2)C(C(=O)NCc2cccc(OC(F)(F)F)c2)C1 (centres unmarked) [Example 121, 4-acetyl-1-(4-isopropyl-benzenesulfonyl)-piperazine-2-carboxylic acid 3-trifluoromethoxy-benzylamide]	> 1000	> 1000
CN(C)c1ccc(CNC(=O)C2CN(C(=O)CC3CCCCC3)CCN2S(=O)(=O)c2ccc(I)cc2)cc1 (centres unmarked) [Example 122, 4-(2-cyclohexyl-acetyl)-1-(4-iodo-benzenesulfonyl)-piperazine-2-carboxylic acid 4-dimethylamino-benzylamide]	> 1000	> 1000
CC(C)c1ccc(S(=O)(=O)N2CCN(C(=O)c3ccccc3)CC2C(=O)NCc2ccc(C(F)(F)F)cc2)cc1 (centres unmarked) [Example 123, 4-benzoyl-1-(4-isopropyl-benzenesulfonyl)-piperazine-2-carboxylic acid 4-trifluoromethyl-benzylamide]	> 1000	> 1000
CC(C)c1ccc(S(=O)(=O)N2CCN(C(=O)Cc3ccccc3)CC2C(=O)NCc2ccc(C(F)(F)F)cc2)cc1 (centres unmarked) [Example 124, 1-(4-isopropyl-benzenesulfonyl)-4-phenylacetyl-piperazine-2-carboxylic acid 4-trifluoromethyl-benzylamide]	> 1000	> 1000
CC(C)c1ccc(S(=O)(=O)N2CCN(C(=O)COc3ccccc3)CC2C(=O)NCc2ccc(C(F)(F)F)cc2)cc1 (centres unmarked) [Example 125, 1-(4-isopropyl-benzenesulfonyl)-4-(2-phenoxy-acetyl)-piperazine-2-carboxylic acid 4-trifluoromethyl-benzylamide]	> 1000	> 1000
CC(=O)N1CCN(S(=O)(=O)c2ccc(C(C)C)cc2)C(C(=O)NCc2ccc(Oc3ccccc3)cc2)C1 (centres unmarked) [Example 126, 4-acetyl-1-(4-isopropyl-benzenesulfonyl)-piperazine-2-carboxylic acid 4-phenoxy-benzylamide]	> 1000	> 1000
CC(=O)N1CCN(S(=O)(=O)c2ccc(C(C)C)cc2)C(C(=O)NCc2ccc(OC(C)C)cc2)C1 (centres unmarked) [Example 127, 4-acetyl-1-(4-isopropyl-benzenesulfonyl)-piperazine-2-carboxylic acid 4-isopropoxy-benzylamide]	> 1000	> 1000
CC(=O)N1CCN(S(=O)(=O)c2ccc(C(C)C)cc2)C(C(=O)NCc2cccc(N(C)C)c2)C1 (centres unmarked) [Example 128, 4-acetyl-1-(4-isopropyl-benzenesulfonyl)-piperazine-2-carboxylic acid 3-dimethylamino-benzylamide]	> 1000	> 1000
CC(=O)N1CCN(S(=O)(=O)c2ccc(C(C)C)cc2)C(C(=O)NCc2ccccc2N(C)C)C1 (centres unmarked) [Example 129, 4-acetyl-1-(4-isopropyl-benzenesulfonyl)-piperazine-2-carboxylic acid 2-dimethylamino-benzylamide]	> 1000	> 1000
CCC(=O)N1CCN(S(=O)(=O)c2ccc(I)cc2)C(C(=O)NCc2ccc(N(C)C)cc2)C1 (centres unmarked) [Example 130, 1-(4-iodo-benzenesulfonyl)-4-propionyl-piperazine-2-carboxylic acid 4-dimethylamino-benzylamide]	> 1000	> 1000
CN(C)c1ccc(CNC(=O)C2CN(C(=O)Cc3ccccc3)CCN2S(=O)(=O)c2ccc(I)cc2)cc1 (centres unmarked) [Example 131, 1-(4-iodo-benzenesulfonyl)-4-phenylacetyl-piperazine-2-carboxylic acid 4-dimethylamino-benzylamide]	100 to 1000	> 1000
CC(=O)N1CCN(S(=O)(=O)c2ccc(CO)cc2)C(C(=O)NCc2ccc(C(F)(F)F)cc2)C1 (centres unmarked) [Example 132, 4-acetyl-1-(4-hydroxymethyl-benzenesulfonyl)-piperazine-2-carboxylic acid 4-trifluoromethyl-benzylamide]	> 1000	> 1000
CC(C)c1ccc(S(=O)(=O)N2CCN(C3=NCCO3)CC2C(=O)NCc2ccc(C(F)(F)F)cc2)cc1 (centres unmarked) [Example 133, 4-(4,5-dihydro-oxazol-2-yl)-1-(4-isopropyl-benzenesulfonyl)-piperazine-2-carboxylic acid 4-trifluoromethyl-benzylamide]	> 1000	> 1000
CC(C)c1ccc(S(=O)(=O)N2CCN(c3nc4ccccc4s3)CC2C(=O)NCc2ccc(C(F)(F)F)cc2)cc1 (centres unmarked) [Example 134, 4-benzothiazol-2-yl-1-(4-isopropyl-benzenesulfonyl)-piperazine-2-carboxylic acid 4-trifluoromethyl-benzylamide]	> 1000	> 1000
CC(C)c1ccc(S(=O)(=O)N2CCN(c3nc(-c4ccccc4)cs3)CC2C(=O)NCc2ccc(C(F)(F)F)cc2)cc1 (centres unmarked) [Example 135, 1-(4-isopropyl-benzenesulfonyl)-4-(4-phenyl-thiazol-2-yl)-piperazine-2-carboxylic acid 4-trifluoromethyl-benzylamide]	> 1000	> 1000
COc1ccc(S(=O)(=O)N2CCN(C(C)=O)CC2C(=O)NCc2ccc(C(F)(F)F)cc2)cc1OC (centres unmarked) [Example 136, 4-acetyl-1-(3,4-dimethoxy-benzenesulfonyl)-piperazine-2-carboxylic acid 4-trifluoromethyl-benzylamide]	> 1000	> 1000
CC(=O)N1CCN(S(=O)(=O)c2ccc(C(C)C)cc2)[C@@H](C(=O)NCc2ccc(C(C)C)cc2)C1 [Example 137, (R)-4-acetyl-1-(4-isopropyl-benzenesulfonyl)-piperazine-2-carboxylic acid 4-isopropyl-benzylamide]	< 100	< 100
CC(=O)N1CCN(S(=O)(=O)c2ccc(C(C)C)cc2)[C@@H](C(=O)NCCc2ccc(Cl)cc2)C1 [Example 138, (R)-4-acetyl-1-(4-isopropyl-benzenesulfonyl)-piperazine-2-carboxylic acid [2-(4-chloro-phenyl)-ethyl]-amide]	> 1000	> 1000
CC(=O)N1CCN(S(=O)(=O)c2ccc(C(C)C)cc2)C(C(=O)NCc2ccc(C3CCCC3)cc2)C1 (centres unmarked) [Example 139, 4-acetyl-1-(4-isopropyl-benzenesulfonyl)-piperazine-2-carboxylic acid 4-cyclopentyl-benzylamide]	100 to 1000	100 to 1000
CCCC(CCC)c1ccc(CNC(=O)C2CN(C(C)=O)CCN2S(=O)(=O)c2ccc(C(C)C)cc2)cc1 (centres unmarked) [Example 140, 4-acetyl-1-(4-isopropyl-benzenesulfonyl)-piperazine-2-carboxylic acid 4-(1-propyl-butyl)-benzylamide]	> 1000	> 1000
CC(=O)N1CCN(S(=O)(=O)c2ccc(C(C)C)cc2)C(C(=O)NCc2ccc(-c3cccc(Cl)c3)cc2)C1 (centres unmarked) [Example 141, 4-acetyl-1-(4-isopropyl-benzenesulfonyl)-piperazine-2-carboxylic acid (3′-chloro-biphenyl-4-ylmethyl)-amide]	> 1000	> 1000
CC(=O)N1CCN(S(=O)(=O)c2ccc(C(C)C)cc2)C(C(=O)NCc2ccc(-c3ccccc3Cl)cc2)C1 (centres unmarked) [Example 142, 4-acetyl-1-(4-isopropyl-benzenesulfonyl)-piperazine-2-carboxylic acid (2′-chloro-biphenyl-4-ylmethyl)-amide]	> 1000	> 1000
COCc1ccc(S(=O)(=O)N2CCN(C(C)=O)CC2C(=O)NCc2ccc(C(F)(F)F)cc2)cc1 (centres unmarked) [Example 143, 4-acetyl-1-(4-methoxymethyl-benzenesulfonyl)-piperazine-2-carboxylic acid 4-trifluoromethyl-benzylamide]	> 1000	> 1000
CCc1ccc(CNC(=O)C2CN(C(C)=O)CCN2S(=O)(=O)c2ccc(C(C)C)cc2)cc1 (centres unmarked) [Example 144, 4-acetyl-1-(4-isopropyl-benzenesulfonyl)-piperazine-2-carboxylic acid 4-ethyl-benzylamide]	100 to 1000	100 to 1000
